Reference: ChEMBL document CHEMBL1201862, “PubChem BioAssay data set” (2004)
Calls of active or inactive are those of the source.

Tests used:
[1] = target: T1, Polyadenylate-binding protein 1 (Homo sapiens, UniProt P11940); experiment: PABP1 MLLE–PAM2 binding inhibitor potency, dose response, biochemical, fluorescence polarization, FITC-PAM2 peptide (AID 602259); type: functional; settings: read-out: IC50_Mean
[2] = tested on: Streptococcus sp. 'group A'; experiment: growth inhibition of control SK(-) GAS strain, dose response, counter-screen for streptokinase expression inhibitor project, luminescence, kanamycin, BacTiterGlo, confirmation (AID 1900); type: functional, organism-based
Streptococcus = experiment: Group A Streptococcus viability loss, dose response, counter-screen for streptokinase expression inhibitor project, luminescence, BacTiterGlo (AID 1915); type: functional, organism-based;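 note: potency for reduction of bacterial viability or growth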
[3] = target: T1, Polyadenylate-binding protein 1; experiment: PABP1 MLLE–PAM2 interaction inhibitors, dose response, miRNA deadenylation inhibitor project, biochemical, fluorescence polarization, Cy5-PAM2 peptide, secondary (AID 602260); type: functional; settings: read-out: IC50_Mean
[4] = Luminescence Cell-Based Dose Retest to Confirm Inhibitors of Cancer Stem Cells. [Related pubchem assays (depositor defined):AID2717, AID2721]; type: functional; settings: Homo sapiens
INS1 = experiment: beta cell apoptosis inhibitors, cytokine rescue, dose response, luminescence, retest (AID 449756); type: functional, cell-based; settings: Rattus norvegicus;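 note: cell death triggered by IL-1 beta plus TNF-alpha plus IFN-gamma mixture; protective hits raise ATP signal compared with cytokine alone wells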
Fatty acid synthase [5] = target: T2, Fatty acid synthase (Homo sapiens, UniProt P49327); experiment: FAS thioesterase domain inhibitors, dose response, biochemical, endpoint fluorescence intensity, uHTS hits (AID 624327); type: functional;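 note: fluorescence from hydrolysis of an O-methyl fluorescein acyl ester substrate by the enzyme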
T2 sequence (P49327 whole entry, the tested form may be a part): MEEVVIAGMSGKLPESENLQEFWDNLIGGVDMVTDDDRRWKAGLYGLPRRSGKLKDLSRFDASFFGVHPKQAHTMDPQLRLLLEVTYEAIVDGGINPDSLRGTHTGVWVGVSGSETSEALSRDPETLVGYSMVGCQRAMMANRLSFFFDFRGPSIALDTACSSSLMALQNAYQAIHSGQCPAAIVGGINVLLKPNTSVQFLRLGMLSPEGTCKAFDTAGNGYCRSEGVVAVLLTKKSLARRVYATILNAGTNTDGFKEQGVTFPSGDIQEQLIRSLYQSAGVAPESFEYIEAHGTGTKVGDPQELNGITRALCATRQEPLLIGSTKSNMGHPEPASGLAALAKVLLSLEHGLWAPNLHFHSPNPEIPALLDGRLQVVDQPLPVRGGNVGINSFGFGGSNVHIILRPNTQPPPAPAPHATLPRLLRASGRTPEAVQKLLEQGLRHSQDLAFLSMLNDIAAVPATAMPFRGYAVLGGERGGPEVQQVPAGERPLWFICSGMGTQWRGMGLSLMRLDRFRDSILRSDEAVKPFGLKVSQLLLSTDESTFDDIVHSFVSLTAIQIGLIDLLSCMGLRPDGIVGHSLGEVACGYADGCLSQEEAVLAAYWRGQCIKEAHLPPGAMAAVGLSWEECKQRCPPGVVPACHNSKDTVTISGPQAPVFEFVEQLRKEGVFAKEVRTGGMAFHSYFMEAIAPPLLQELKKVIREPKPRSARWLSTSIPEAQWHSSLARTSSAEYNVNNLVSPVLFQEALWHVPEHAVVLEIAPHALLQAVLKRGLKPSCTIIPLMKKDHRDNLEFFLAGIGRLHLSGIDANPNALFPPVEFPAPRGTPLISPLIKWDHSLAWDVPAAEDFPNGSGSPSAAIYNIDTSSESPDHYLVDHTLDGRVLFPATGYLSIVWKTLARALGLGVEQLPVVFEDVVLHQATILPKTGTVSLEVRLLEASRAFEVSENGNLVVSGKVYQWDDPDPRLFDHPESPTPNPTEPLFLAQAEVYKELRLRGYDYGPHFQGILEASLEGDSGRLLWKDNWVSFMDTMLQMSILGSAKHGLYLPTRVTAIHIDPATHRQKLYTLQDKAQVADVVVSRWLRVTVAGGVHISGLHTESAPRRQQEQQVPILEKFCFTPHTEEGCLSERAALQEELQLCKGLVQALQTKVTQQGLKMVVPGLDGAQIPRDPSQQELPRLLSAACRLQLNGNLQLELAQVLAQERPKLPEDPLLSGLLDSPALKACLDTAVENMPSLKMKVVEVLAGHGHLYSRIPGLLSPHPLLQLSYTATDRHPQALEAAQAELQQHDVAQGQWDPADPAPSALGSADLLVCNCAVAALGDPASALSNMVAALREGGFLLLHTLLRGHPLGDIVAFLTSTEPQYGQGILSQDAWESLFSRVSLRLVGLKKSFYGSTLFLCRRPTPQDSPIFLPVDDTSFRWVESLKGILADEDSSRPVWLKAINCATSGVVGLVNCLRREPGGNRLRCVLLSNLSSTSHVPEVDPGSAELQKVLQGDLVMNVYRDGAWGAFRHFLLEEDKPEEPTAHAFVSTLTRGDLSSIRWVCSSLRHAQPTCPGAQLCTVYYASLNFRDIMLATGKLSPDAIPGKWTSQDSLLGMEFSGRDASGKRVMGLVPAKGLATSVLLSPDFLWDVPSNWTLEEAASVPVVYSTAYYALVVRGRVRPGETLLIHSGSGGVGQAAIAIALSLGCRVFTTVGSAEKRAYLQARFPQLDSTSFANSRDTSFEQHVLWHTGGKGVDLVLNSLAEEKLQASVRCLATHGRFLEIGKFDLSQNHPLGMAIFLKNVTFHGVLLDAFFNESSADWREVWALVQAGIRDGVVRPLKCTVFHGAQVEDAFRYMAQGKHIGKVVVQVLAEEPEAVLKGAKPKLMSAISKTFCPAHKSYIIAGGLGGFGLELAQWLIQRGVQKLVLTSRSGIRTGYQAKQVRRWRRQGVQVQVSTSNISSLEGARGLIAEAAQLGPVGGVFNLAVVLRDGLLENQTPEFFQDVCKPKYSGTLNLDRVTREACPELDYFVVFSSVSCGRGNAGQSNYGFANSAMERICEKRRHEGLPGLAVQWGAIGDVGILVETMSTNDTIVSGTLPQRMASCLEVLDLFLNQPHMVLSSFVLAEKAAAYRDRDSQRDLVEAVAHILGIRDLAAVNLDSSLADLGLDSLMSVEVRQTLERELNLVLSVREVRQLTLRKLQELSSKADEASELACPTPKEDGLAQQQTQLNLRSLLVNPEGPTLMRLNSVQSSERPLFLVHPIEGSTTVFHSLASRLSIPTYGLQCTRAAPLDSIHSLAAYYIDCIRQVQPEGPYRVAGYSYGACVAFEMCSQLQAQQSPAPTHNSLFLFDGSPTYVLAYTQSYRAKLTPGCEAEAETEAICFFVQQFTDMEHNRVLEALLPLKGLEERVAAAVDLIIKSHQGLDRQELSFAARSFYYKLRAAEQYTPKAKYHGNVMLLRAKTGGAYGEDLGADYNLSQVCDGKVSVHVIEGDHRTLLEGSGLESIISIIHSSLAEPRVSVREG

Fatty acid synthase [6] = target: T2, Fatty acid synthase; experiment: FAS thioesterase domain inhibitors, dose response, biochemical, kinetic fluorescence intensity (AID 624326); type: functional;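 note: rate of fluorescence rise from hydrolysis of a fluorogenic O-methyl fluorescein ester substrate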
[7] = target: T3, Heat shock factor protein 1 (Mus musculus, UniProt P38532); experiment: HSF1 potentiators in luciferase reporter cells, confirmation, cell-based, NIH3T3, luminescence, dose retest (AID 435004); type: functional;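 note: stress induced by proteasome inhibitor MG132 added 30 min after compound; luciferase reporter driven by HSF1 response element in NIH3T3 cells; actives raise luminescence as potentiators of the MG132 stress response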
T3 sequence (P38532 whole entry): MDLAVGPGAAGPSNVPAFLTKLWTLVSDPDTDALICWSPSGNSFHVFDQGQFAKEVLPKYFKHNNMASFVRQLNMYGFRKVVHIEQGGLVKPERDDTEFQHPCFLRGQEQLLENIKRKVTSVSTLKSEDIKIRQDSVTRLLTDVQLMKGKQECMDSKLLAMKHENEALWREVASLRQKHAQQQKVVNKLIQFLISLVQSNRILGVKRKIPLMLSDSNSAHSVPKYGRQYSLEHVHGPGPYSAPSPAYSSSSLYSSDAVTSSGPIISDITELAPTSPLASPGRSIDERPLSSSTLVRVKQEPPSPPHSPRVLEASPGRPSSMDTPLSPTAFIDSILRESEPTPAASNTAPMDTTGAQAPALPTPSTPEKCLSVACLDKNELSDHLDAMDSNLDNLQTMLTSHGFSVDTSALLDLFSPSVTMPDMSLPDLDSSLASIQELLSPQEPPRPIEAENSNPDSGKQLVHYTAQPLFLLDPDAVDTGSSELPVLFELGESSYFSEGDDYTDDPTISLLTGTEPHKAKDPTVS

Aminopeptidase N = target: T4, Aminopeptidase N (Plasmodium falciparum FcB1/Columbia, UniProt O96935); experiment: P. falciparum M1AAP inhibitors, biochemical, fluorogenic H-Leu-NHMec substrate, 1536-well (AID 1445); set-up: species or system Plasmodium falciparum 3D7, 3D7
T4 sequence (O96935 whole entry): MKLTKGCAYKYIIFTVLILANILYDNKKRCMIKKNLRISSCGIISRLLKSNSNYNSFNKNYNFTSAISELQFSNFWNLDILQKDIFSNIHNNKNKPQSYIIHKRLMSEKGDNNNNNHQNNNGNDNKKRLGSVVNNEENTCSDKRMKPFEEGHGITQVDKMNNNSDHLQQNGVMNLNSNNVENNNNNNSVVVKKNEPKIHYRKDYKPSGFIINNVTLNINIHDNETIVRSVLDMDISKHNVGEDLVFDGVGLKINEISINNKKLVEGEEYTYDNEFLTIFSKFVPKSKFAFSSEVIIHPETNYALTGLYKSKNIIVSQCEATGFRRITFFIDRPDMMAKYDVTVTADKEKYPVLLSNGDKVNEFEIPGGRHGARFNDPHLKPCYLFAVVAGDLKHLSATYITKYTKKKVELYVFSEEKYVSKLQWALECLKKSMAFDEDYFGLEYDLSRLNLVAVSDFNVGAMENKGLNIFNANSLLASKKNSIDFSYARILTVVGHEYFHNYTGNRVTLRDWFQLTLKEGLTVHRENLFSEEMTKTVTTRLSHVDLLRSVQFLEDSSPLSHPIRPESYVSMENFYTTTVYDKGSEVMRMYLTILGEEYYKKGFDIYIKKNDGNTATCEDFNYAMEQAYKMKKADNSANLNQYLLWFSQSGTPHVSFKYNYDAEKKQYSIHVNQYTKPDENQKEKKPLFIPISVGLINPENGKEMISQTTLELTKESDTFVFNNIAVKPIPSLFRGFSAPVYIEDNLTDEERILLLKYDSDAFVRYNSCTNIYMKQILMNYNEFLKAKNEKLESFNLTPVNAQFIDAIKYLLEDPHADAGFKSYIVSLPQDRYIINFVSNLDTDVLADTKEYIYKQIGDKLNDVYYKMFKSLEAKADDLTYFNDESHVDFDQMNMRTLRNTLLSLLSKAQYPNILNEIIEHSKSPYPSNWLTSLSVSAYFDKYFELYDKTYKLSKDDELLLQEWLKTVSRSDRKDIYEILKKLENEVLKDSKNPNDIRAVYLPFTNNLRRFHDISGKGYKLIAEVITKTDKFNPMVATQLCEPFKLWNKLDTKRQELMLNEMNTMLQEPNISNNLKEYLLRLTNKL

Estrogen receptor = target: T5, Estrogen receptor (Homo sapiens, UniProt P03372);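 note: potency for inhibiting coactivator peptide recruitment to the receptor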
T5 sequence (P03372 whole entry): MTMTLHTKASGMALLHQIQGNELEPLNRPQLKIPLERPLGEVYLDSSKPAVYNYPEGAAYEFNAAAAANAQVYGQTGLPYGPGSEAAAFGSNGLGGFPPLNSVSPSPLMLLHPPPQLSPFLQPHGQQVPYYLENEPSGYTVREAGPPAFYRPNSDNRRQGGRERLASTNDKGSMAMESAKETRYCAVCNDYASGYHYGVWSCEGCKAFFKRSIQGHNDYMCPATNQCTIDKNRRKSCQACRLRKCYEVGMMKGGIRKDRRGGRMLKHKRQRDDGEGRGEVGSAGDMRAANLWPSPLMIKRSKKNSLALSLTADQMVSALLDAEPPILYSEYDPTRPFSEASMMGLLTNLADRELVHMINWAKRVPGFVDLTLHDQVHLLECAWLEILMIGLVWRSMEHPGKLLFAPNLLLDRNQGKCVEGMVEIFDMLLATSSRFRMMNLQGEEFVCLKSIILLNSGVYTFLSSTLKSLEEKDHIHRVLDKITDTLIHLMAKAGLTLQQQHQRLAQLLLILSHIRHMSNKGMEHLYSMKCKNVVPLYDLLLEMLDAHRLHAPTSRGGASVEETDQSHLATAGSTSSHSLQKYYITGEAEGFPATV

Streptokinase A = target: T6, Streptokinase A (Streptococcus pyogenes serotype M1, UniProt P10520); experiment: S. pyogenes streptokinase expression inhibitors, potency, dose response, plasminogen activation absorbance, OD405 (AID 1914); type: functional, Streptococcus pyogenes M1 GAS;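 note: secreted streptokinase activity via plasminogen activation per viability signal from cell pellet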
T6 sequence (P10520 whole entry): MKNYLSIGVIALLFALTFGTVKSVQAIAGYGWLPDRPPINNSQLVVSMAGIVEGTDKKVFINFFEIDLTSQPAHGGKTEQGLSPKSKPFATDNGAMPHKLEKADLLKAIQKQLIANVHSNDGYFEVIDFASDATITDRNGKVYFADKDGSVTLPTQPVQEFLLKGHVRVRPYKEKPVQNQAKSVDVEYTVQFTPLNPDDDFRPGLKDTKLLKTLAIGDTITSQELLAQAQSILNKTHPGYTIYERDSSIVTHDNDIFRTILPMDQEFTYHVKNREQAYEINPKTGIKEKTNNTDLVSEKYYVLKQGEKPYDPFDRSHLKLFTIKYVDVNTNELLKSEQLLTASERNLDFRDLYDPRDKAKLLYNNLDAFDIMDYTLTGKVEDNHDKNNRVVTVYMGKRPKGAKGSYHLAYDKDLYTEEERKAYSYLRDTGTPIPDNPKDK

[8] = inhibitors of HIV Env-driven cell fusion, dose response, cherry-pick (AID 652057); type: functional, cell-based
[9] = inhibitors of clade B AD8 Env fusion, dose response, cell-based, cherry-pick (AID 652062); type: functional;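 note: luciferase signal from cell-cell fusion driven by HIV-1 clade B AD8 Env; potency is for inhibitors of fusion seen as a drop in luminescence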
[10] = growth suppression of beta-catenin-knockout colon cells, dose response, cell-based, HCT116, human colon tumor (AID 1045); type: functional;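 note: HCT116 colon tumor cells with beta catenin knocked out; cells exposed to compound for 60 hours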
[11] = growth suppression of PTEN-null colon cells, dose response, cell-based, HCT116 PTEN knockout (AID 1047); type: functional;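 note: HCT116 colon tumor cells with PTEN knocked out; cells exposed to compound for 60 hours before readout; potency for loss of cell viability measured by luminescence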

T1 sequence (P11940 whole entry): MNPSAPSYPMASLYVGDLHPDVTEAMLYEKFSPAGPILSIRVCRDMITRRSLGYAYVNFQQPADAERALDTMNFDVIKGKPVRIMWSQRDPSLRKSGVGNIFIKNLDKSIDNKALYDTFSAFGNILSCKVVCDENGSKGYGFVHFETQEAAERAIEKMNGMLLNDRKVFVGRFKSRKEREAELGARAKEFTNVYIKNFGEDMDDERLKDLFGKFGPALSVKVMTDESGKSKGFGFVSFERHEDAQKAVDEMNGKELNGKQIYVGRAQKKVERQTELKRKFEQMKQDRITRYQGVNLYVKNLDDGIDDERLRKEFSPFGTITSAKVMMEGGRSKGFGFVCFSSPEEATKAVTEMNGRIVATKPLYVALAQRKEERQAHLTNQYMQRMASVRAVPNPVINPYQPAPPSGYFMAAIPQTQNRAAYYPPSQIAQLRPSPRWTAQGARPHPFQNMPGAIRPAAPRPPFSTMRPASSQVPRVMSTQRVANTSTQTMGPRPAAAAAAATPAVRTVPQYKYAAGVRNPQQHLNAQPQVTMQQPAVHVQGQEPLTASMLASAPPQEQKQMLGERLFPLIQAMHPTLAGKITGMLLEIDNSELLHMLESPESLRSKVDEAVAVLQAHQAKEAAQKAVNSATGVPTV

With `CCCOc1ccc(C(=O)NNC(=S)NC(=O)c2cc(-c3ccc(Cl)cc3)nc3ccccc23)cc1` the IC50 [1] was > 66 µM (inactive), the EC50 [2] was < 0.06 µM (active) and the EC50 (Streptococcus) was < 0.06 µM (active). The IC50 [3] was > 66 µM (inactive).
For `O=S(=O)([N-]c1nc2ccccc2nc1-[n+]1ccc(Cc2ccccc2)cc1)c1ccc(Br)s1`, the AC50 [4] was 6.23 µM (active), the IC50 [1] was 52.3 µM (inactive) and the IC50 [3] was > 66 µM (inactive). The AC50 (INS1) was 6.81 µM (active).
With `O=C(OCC(=O)N1CCN(c2ccccc2)CC1)c1cccc([N+](=O)[O-])c1` the IC50 (Fatty acid synthase [5]) was 7.7 µM (active) and the IC50 (Fatty acid synthase [6]) was 11.9 µM (active).
With `CN(C)CCc1nc2ccccc2c(=O)n1-c1ccccc1` the EC50 [7] was > 260 µM (inactive).
For `O=[N+]([O-])c1cccc(CN2CC=C(c3ccc(F)cc3)CC2)c1`, the IC50 (Fatty acid synthase [5]) was 11.4 µM (active) and the IC50 (Fatty acid synthase [6]) was 9.86 µM (active).
In the case of `O=C(NCc1ccc2c(c1)OCO2)C1CCCN(S(=O)(=O)c2cccnc2)C1` (configuration not stated), the IC50 (Aminopeptidase N) is reported as 70.7 µM (active).
With `O=S(=O)(c1cccc(-c2cn3cccnc3n2)c1)N1CCCCCC1` the IC50 (Estrogen receptor) was 22.3 µM (active).
In the case of `CCC(=O)Nc1nonc1-c1nc2ccccc2n1N(C(=O)CC)C(=O)CC`, the IC50 (Estrogen receptor) is reported as > 50 µM (not active).
In the case of `O=C(O)/C(=C\c1ccc(-c2ccc(F)cc2)o1)c1ccccc1`, the IC50 (Aminopeptidase N) is reported as 51.4 µM (active).
For `COc1ccc(CN2CC(=O)N3[C@H]4c5ccccc5OC[C@@H]4[C@H](c4ccccc4)[C@]3(C)C2=O)cc1`, the IC50 [1] was > 66 µM (inactive) and the IC50 [3] was > 66 µM (inactive).
For `Cc1ccc(-c2nnn(CC(=O)Nc3ccc4nn(-c5ccccc5)nc4c3)n2)o1`, the IC50 (Estrogen receptor) was > 50 µM (not active).
In the case of `Cc1cc(O)nc(-n2ncc(C#N)c2N)n1`, the EC50 [7] is reported as > 260 µM (inactive).
In the case of `CSc1nc(NCc2ccco2)c2ccccc2n1`, the IC50 (Estrogen receptor) is reported as > 50 µM (not active).
For `Cc1ccc(CNC(=O)CSc2nc3ccsc3c(=O)n2NC(=O)c2ccccc2)cc1`, the IC50 (Aminopeptidase N) was 11.1 µM (active).
For `O=C(COC(=O)c1cc([N+](=O)[O-])ccc1N1CCOCC1)NCCc1ccccc1`, the IC50 (Fatty acid synthase [5]) was 1.98 µM (active) and the IC50 (Fatty acid synthase [6]) was 2.6 µM (active).
In the case of `CC1=CC(=O)C=CC1=Nc1ccc(N(C)C)cc1`, the IC50 [1] is reported as > 66 µM (inactive) and the IC50 [3] is reported as 61.6 µM (inactive).
For `COc1cc2nc(CSc3nc(-c4ccc(F)cc4)cs3)nc(O)c2cc1OC`, the EC50 [7] was > 260 µM (inactive), the EC50 [2] was > 150 µM (not active) and the EC50 (Streptococcus) was > 150 µM (not active). For the same molecule, the EC50 (Streptokinase A) was > 150 µM (not active).
For `Cc1ccc(NC(=O)c2cnn(-c3ccccc3)c2C)cc1`, the EC50 [7] was > 260 µM (inconclusive).
With `N#Cc1cc(Oc2ccc(Cl)cc2)c(N2CCOCC2)cc1C#N` the IC50 (Fatty acid synthase [5]) was 4.35 µM (active) and the IC50 (Fatty acid synthase [6]) was 4.83 µM (active).
With `Brc1ccc(-c2nnc(-c3cccnc3)c3conc23)cc1` the IC50 (Estrogen receptor) was 6.62 µM (active).
With `CCOC(=O)N1CCN(C(=O)C(=O)NNC(=O)COc2ccc(Cl)cc2)CC1` the IC50 (Aminopeptidase N) was 106 µM (active).
In the case of `CCN(CCCNC(=O)CCCN1C(=O)COc2ccc(C)cc21)c1cccc(C)c1`, the EC50 [7] is reported as > 260 µM (inactive).
In the case of `CC1(C)c2cc(O)ccc2OC1N1CCOCC1` (configuration not stated), the EC50 [7] is reported as > 260 µM (inactive).
For `COc1ccccc1-c1ccc2c(c1)O[C@H](CN(C)S(=O)(=O)c1ccc(C)cc1)[C@H](C)CN([C@@H](C)CO)S2(=O)=O`, the AC50 [8] was 2.84 µM (active) and the AC50 [9] was 2.97 µM (active).
For `COC(=O)Cn1c(=O)c2c(nc3n2CC(C)CN3CCc2ccccc2)n(C)c1=O` (configuration not stated), the EC50 [7] was > 260 µM (inactive).
For `COc1cccc(-c2nc(=S)c3c(n2CCCO)CCCC3)c1`, the IC50 [1] was > 66 µM (inactive) and the IC50 [3] was > 66 µM (inactive).
With `N#C/C(=C(\O)Nc1ccc(Cl)cc1)c1nc2ccccc2[nH]1` the EC50 [10] was 35.1 µM (active), the IC50 (Estrogen receptor) was 27.1 µM (active) and the EC50 [11] was 31.9 µM (active).
In the case of `O=C(/C=C/c1cccc([N+](=O)[O-])c1)NC(=S)Nc1ccc(CN2CCOCC2)cc1`, the EC50 [7] is reported as 14.6 µM (active), the IC50 [1] is reported as > 66 µM (inactive) and the IC50 [3] is reported as > 66 µM (inactive).
In the case of `COc1ccc([N+](=O)[O-])cc1C(=O)NCCOc1ccc(Cl)cc1`, the IC50 (Fatty acid synthase [5]) is reported as 5.95 µM (active) and the IC50 (Fatty acid synthase [6]) is reported as 7.34 µM (active).
With `COc1cc(OC)c(OC)cc1CN(C)CCc1ccccn1` the EC50 [7] was > 260 µM (inactive).
